Measurements: patent publication EP1028947B1, “H3 RECEPTOR LIGANDS OF THE PHENYL-ALKYL-[…]” (SCHERING CORPORATION, priority 1997, dated 1999)

Experiments:
[1] = Blood levels of the compound (no method described); type: in vivo; conditions: compared with the preferred compounds of WO 95/14007; statement in words, no data
H3 receptors = molecular target: T1, H3 receptors (Cavia porcellus, UniProt Q9JI35); assay: H3-Receptor Binding Assay; conditions: guinea pig brain membranes; 3 nM [3H]R-a-methylhistamine or 3 nM [3H]Na-methylhistamine; 30°C for 30 min; HCl salt of the compound
T1 construct: The source of the H3 receptors in this experiment was guinea pig brain; from tissue; host or cells: guinea pig brain membranes
T1 sequence (Q9JI35 whole entry): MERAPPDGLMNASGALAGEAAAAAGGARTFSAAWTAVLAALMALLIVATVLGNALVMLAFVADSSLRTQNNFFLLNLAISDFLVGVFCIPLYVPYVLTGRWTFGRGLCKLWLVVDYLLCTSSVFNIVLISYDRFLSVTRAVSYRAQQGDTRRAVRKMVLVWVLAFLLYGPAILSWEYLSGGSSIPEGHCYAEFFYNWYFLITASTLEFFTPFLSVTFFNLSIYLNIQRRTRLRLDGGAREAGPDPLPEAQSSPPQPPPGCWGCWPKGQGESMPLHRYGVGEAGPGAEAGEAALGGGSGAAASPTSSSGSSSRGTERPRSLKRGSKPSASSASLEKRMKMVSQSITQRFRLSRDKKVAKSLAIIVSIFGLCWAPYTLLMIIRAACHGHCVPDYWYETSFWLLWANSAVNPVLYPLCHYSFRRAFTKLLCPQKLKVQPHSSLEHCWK
Protocol: H3-Receptor Binding Assay
The source of the H3 receptors in this experiment was guinea pig brain. The animals weighed 400-600 g. The brain tissue was homogenized using a Polytron in a solution of 50 mM Tris, pH 7.5. The final concentration of tissue in the homogenization buffer was 10% w/v. The homogenates were centrifuged at 1,000 x g for 10 min. in order to remove clumps of tissue and debris. The resulting supematants were then centrifuged at 50,000 x g for 20 min. in order to sediment the membranes, which were next washed three times in homogenization buffer (50,000 x g for 20 min. each). The membranes were frozen and stored at -70°C until needed.
The compound to be tested was dissolved in DMSO and then diluted into the binding buffer (50 mM Tris, pH 7.5) such that the final concentration was 2 µg/ml with 0.1% DMSO. Membranes were then added (400 µg of protein) to the reaction tubes. The reaction was started by the addition of 3 nM [^3H]R-a-methylhistamine (8.8 Ci/mmol) or 3 nM [^3H]N^a-methylhistamine (80 Ci/mmol) and continued under incubation at 30°C for 30 min. Bound ligand was separated from unbound ligand by filtration, and the amount of radioactive ligand bound to the membranes was quantitated by liquid scintillation spectrometry. All incubations were performed in duplicate and the standard error was always less than 10%. The Compound was serially diluted to determine a Ki (nM). […]

O=C(NCc1ccc(Cc2c[nH]cn2)cc1)Nc1cc(Cl)cc(Cl)c1 [compound of the present invention]
blood levels of the compound [1]: higher blood levels | Ki (H3 receptors): 4 nM
